Laboratory results: ChEMBL document CHEMBL3751767, “Synthesis, in vitro and in vivo anticancer activities of novel 4-substituted 1,2-bis(4-chlorophenyl)-pyrazolidine-3,5-dione derivatives” (Medchemcomm, 2015)
Active and inactive are the calls of the source. The calls are words filed in the database; no cut-off is given here.

Experiments:
[1] = Cytotoxicity against human MGC803 cells assessed as reduction in cell viability after 72 hrs by MTT assay; type: functional, cell-based; conditions: MGC-803, 72 h
[2] = Cytotoxicity against human EC109 cells assessed as reduction in cell viability after 72 hrs by MTT assay; type: functional, cell-based; conditions: ECa-109, 72 h
MCF7 = assay: Cytotoxicity against human MCF7 cells assessed as reduction in cell viability after 72 hrs by MTT assay; type: functional, cell-based; conditions: MCF7, 72 h
[3] = Cytotoxicity against human SMMC7721 cells assessed as reduction in cell viability after 72 hrs by MTT assay; type: functional, cell-based; conditions: SMMC-7721, 72 h
[4] = Cytotoxicity against human GES-1 cells assessed as cell viability at 20 uM after 72 hrs by MTT assay relative to control; type: cell-based, GES1; conditions: read-out: Activity
MGC-803 [5] = assay: Induction of apoptosis in human MGC803 cells assessed as morphological changes at 4 to 12 uM after 12 hrs by inverted microscopy; type: functional, cell-based
MGC-803 [6] = assay: Induction of apoptosis in human MGC803 cells assessed as nuclear morphological changes at 4 to 12 uM after 12 hrs by Hoechst 33258 staining based fluorescence assay; type: functional, cell-based
MGC-803 [7] = assay: Induction of apoptosis in human MGC803 cells assessed as early apoptotic cells at 4 uM after 12 hrs by Annexin V-FITC/propidium iodide staining based flow cytometry (reference value: 6.3%); type: functional
MGC-803 [8] = assay: Induction of apoptosis in human MGC803 cells assessed as late apoptotic cells at 4 uM after 12 hrs by Annexin V-FITC/propidium iodide staining based flow cytometry (reference value: 1.2%); type: functional
MGC-803 [9] = assay: Induction of apoptosis in human MGC803 cells assessed as necrotic cells at 4 uM after 12 hrs by Annexin V-FITC/propidium iodide staining based flow cytometry (reference value: 9.2%); type: functional
MGC-803 [10] = assay: Induction of apoptosis in human MGC803 cells assessed as viable cells at 4 uM after 12 hrs by Annexin V-FITC/propidium iodide staining based flow cytometry (reference value: 83.4%); type: functional; conditions: MGC-803, 12 h, read-out: Activity
MGC-803 [11] = assay: Induction of apoptosis in human MGC803 cells assessed as early apoptotic cells at 8 uM after 12 hrs by Annexin V-FITC/propidium iodide staining based flow cytometry (reference value: 6.3%); type: functional
MGC-803 [12] = assay: Induction of apoptosis in human MGC803 cells assessed as late apoptotic cells at 8 uM after 12 hrs by Annexin V-FITC/propidium iodide staining based flow cytometry (reference value: 1.2%); type: functional
MGC-803 [13] = assay: Induction of apoptosis in human MGC803 cells assessed as necrotic cells at 8 uM after 12 hrs by Annexin V-FITC/propidium iodide staining based flow cytometry (reference value: 9.2%); type: functional
MGC-803 [14] = assay: Induction of apoptosis in human MGC803 cells assessed as viable cells at 8 uM after 12 hrs by Annexin V-FITC/propidium iodide staining based flow cytometry (reference value: 83.4%); type: functional; conditions: MGC-803, 12 h, read-out: Activity
MGC-803 [15] = assay: Induction of apoptosis in human MGC803 cells assessed as early apoptotic cells at 12 uM after 12 hrs by Annexin V-FITC/propidium iodide staining based flow cytometry (reference value: 6.3%); type: functional
MGC-803 [16] = assay: Induction of apoptosis in human MGC803 cells assessed as late apoptotic cells at 12 uM after 12 hrs by Annexin V-FITC/propidium iodide staining based flow cytometry (reference value: 1.2%); type: functional
MGC-803 [17] = assay: Induction of apoptosis in human MGC803 cells assessed as necrotic cells at 12 uM after 12 hrs by Annexin V-FITC/propidium iodide staining based flow cytometry (reference value: 9.2%); type: functional
MGC-803 [18] = assay: Induction of apoptosis in human MGC803 cells assessed as viable cells at 12 uM after 12 hrs by Annexin V-FITC/propidium iodide staining based flow cytometry (reference value: 83.4%); type: functional; conditions: MGC-803, 12 h, read-out: Activity
MGC-803 [19] = assay: Induction of apoptosis in human MGC803 cells assessed as early apoptotic cells at 4 uM after 24 hrs by Annexin V-FITC/propidium iodide staining based flow cytometry (reference value: 6%); type: functional
MGC-803 [20] = assay: Induction of apoptosis in human MGC803 cells assessed as late apoptotic cells at 4 uM after 24 hrs by Annexin V-FITC/propidium iodide staining based flow cytometry (reference value: 1.2%); type: functional
MGC-803 [21] = assay: Induction of apoptosis in human MGC803 cells assessed as necrotic cells at 4 uM after 24 hrs by Annexin V-FITC/propidium iodide staining based flow cytometry (reference value: 6.1%); type: functional
MGC-803 [22] = assay: Induction of apoptosis in human MGC803 cells assessed as viable cells at 4 uM after 24 hrs by Annexin V-FITC/propidium iodide staining based flow cytometry (reference value: 86.6%); type: functional; conditions: MGC-803, 24 h, read-out: Activity
MGC-803 [23] = assay: Induction of apoptosis in human MGC803 cells assessed as early apoptotic cells at 8 uM after 24 hrs by Annexin V-FITC/propidium iodide staining based flow cytometry (reference value: 6%); type: functional
MGC-803 [24] = assay: Induction of apoptosis in human MGC803 cells assessed as late apoptotic cells at 8 uM after 24 hrs by Annexin V-FITC/propidium iodide staining based flow cytometry (reference value: 1.2%); type: functional
MGC-803 [25] = assay: Induction of apoptosis in human MGC803 cells assessed as necrotic cells at 8 uM after 24 hrs by Annexin V-FITC/propidium iodide staining based flow cytometry (reference value: 6.1%); type: functional
MGC-803 [26] = assay: Induction of apoptosis in human MGC803 cells assessed as viable cells at 8 uM after 24 hrs by Annexin V-FITC/propidium iodide staining based flow cytometry (reference value: 86.6%); type: functional; conditions: MGC-803, 24 h, read-out: Activity
MGC-803 [27] = assay: Induction of apoptosis in human MGC803 cells assessed as early apoptotic cells at 12 uM after 24 hrs by Annexin V-FITC/propidium iodide staining based flow cytometry (reference value: 6%); type: functional
MGC-803 [28] = assay: Induction of apoptosis in human MGC803 cells assessed as late apoptotic cells at 12 uM after 24 hrs by Annexin V-FITC/propidium iodide staining based flow cytometry (reference value: 1.2%); type: functional
MGC-803 [29] = assay: Induction of apoptosis in human MGC803 cells assessed as necrotic cells at 12 uM after 24 hrs by Annexin V-FITC/propidium iodide staining based flow cytometry (reference value: 6.1%); type: functional
MGC-803 [30] = assay: Induction of apoptosis in human MGC803 cells assessed as viable cells at 12 uM after 24 hrs by Annexin V-FITC/propidium iodide staining based flow cytometry (reference value: 86.6%); type: functional; conditions: MGC-803, 24 h, read-out: Activity
MGC-803 [31] = assay: Induction of apoptosis in human MGC803 cells assessed as increase in expression of cleaved caspase-9 at 4 to 12 uM after 24 hrs by Western blot analysis; type: functional, cell-based
MGC-803 [32] = assay: Induction of apoptosis in human MGC803 cells assessed as increase in expression of cleaved caspase-3 at 4 to 12 uM after 24 hrs by Western blot analysis; type: functional, cell-based
MGC-803 [33] = assay: Induction of apoptosis in human MGC803 cells assessed as decrease in expression of procaspase-9 at 4 to 12 uM after 24 hrs by Western blot analysis; type: functional, cell-based
MGC-803 [34] = assay: Induction of apoptosis in human MGC803 cells assessed as decrease in expression of procaspase-3 at 4 to 12 uM after 24 hrs by Western blot analysis; type: functional, cell-based
MGC-803 [35] = assay: Induction of apoptosis in human MGC803 cells assessed as increase in Bax protein expression after 24 hrs by Western blot analysis; type: functional, cell-based
MGC-803 [36] = assay: Induction of apoptosis in human MGC803 cells assessed as reduction in Bcl-2 protein expression after 24 hrs by Western blot analysis; type: functional, cell-based
MGC-803 [37] = assay: Induction of apoptosis in human MGC803 cells assessed as increase in expression of cleaved caspase-9 at 4 to 12 uM by Western blot analysis; type: functional, cell-based; conditions: TDE = time-dependent effect
MGC-803 [38] = assay: Induction of apoptosis in human MGC803 cells assessed as increase in expression of cleaved caspase-3 at 4 to 12 uM by Western blot analysis; type: functional, cell-based; conditions: TDE = time-dependent effect
MGC-803 [39] = assay: Induction of apoptosis in human MGC803 cells assessed as increase in expression of cleaved caspase-9 after 24 hrs by Western blot analysis; type: functional, cell-based
MGC-803 [40] = assay: Induction of apoptosis in human MGC803 cells assessed as increase in expression of cleaved caspase-3 after 24 hrs by Western blot analysis; type: functional, cell-based
Mus musculus = assay: Toxicity in nude mouse xenografted with human MGC803 cells assessed as body weight loss at 7.5 to 30 mg/kg, po qd for 28 days; type: organism-based, MGC-803; conditions: in vivo, 672 h
[41] = Antitumor activity against human MGC803 cells xenografted in nude mouse assessed as reduction in tumor weight 7.5 to 30 mg/kg, po qd for 28 days relative to control; type: functional, MGC-803; set-up: scale not given: the % may be the effect or the level left
MGC-803 [42] = assay: Induction of apoptosis in human MGC803 cells by Annexin V-FITC/propidium iodide staining based flow cytometry; type: functional, cell-based

## O=C1C(=C/C=C/c2ccccc2)C(=O)N(c2ccc(Cl)cc2)N1c1ccc(Cl)cc1
[1]
  IC50: 5.1 µM
[2]
  IC50: 9.9 µM
MCF7
  IC50: 9.4 µM
[3]
  IC50: 10.1 µM
[4]
  viability at 72 h, 20 µM: 75%
MGC-803 [5]
  Activity: Active
MGC-803 [6]
  Activity: Active
MGC-803 [7]
  Activity: 12.8%
MGC-803 [8]
  Activity: 1.8%
MGC-803 [9]
  Activity: 7.8%
MGC-803 [10]
  viability at 4 µM: 77.7%
MGC-803 [11]
  Activity: 21.5%
MGC-803 [12]
  Activity: 1.7%
MGC-803 [13]
  Activity: 5.7%
MGC-803 [14]
  viability at 8 µM: 71.1%
MGC-803 [15]
  Activity: 30.1%
MGC-803 [16]
  Activity: 1.9%
MGC-803 [17]
  Activity: 3.9%
MGC-803 [18]
  viability at 12 µM: 64.1%
MGC-803 [19]
  Activity: 20.4%
MGC-803 [20]
  Activity: 1.8%
MGC-803 [21]
  Activity: 5.8%
MGC-803 [22]
  viability at 4 µM: 72.1%
MGC-803 [23]
  Activity: 28.8%
MGC-803 [24]
  Activity: 2%
MGC-803 [25]
  Activity: 4.2%
MGC-803 [26]
  viability at 8 µM: 65%
MGC-803 [27]
  Activity: 52.7%
MGC-803 [28]
  Activity: 3.7%
MGC-803 [29]
  Activity: 4.4%
MGC-803 [30]
  viability at 12 µM: 39.2%
MGC-803 [31]
  Activity: Active
MGC-803 [32]
  Activity: Active
MGC-803 [33]
  Activity: Active
MGC-803 [34]
  Activity: Active
MGC-803 [35]
  Activity: Dose-dependent effect
MGC-803 [36]
  Activity: Dose-dependent effect
MGC-803 [37]
  Activity: tde
MGC-803 [38]
  Activity: tde
MGC-803 [39]
  Activity: Dose-dependent effect
MGC-803 [40]
  Activity: Dose-dependent effect
Mus musculus
  Activity: Non-toxic
[41]
  Activity: 60.4%
MGC-803 [42]
  Activity: Dose-dependent effect
